Laboratory results published in US12540143B2, “Methods and compositions for targeted protein degradation” (Ranok Therapeutics (Hangzhou) Co. Ltd., priority 2019, dated 2026).

Tested on: MV4-11 cells
Assay: MV4-11 Cytotoxicity Assay
Assay type: cell-based, human
Settings: Homo sapiens, MV4-11; 72 hr, CCK-8; read-out: MV4-11 cytotoxicity

Structure (SMILES) | IC50
Cc1sc2c(c1C)C(c1ccc(Cl)cc1)=N[C@@H](CCNCC1CCN(C(=O)C3CCN(Cc4ccc(-n5c(O)nnc5-c5cc(C(C)C)c(O)cc5O)cc4)CC3)CC1)c1nnc(C)n1-2 [Compound 64, (4-(((2-((6S)-4-(4-chlorophenyl)-2,3,9-trimethyl-6H-thieno[3,2-f][1,2,4]triazolo[4,3-a][1,4]diazepin-6-yl)ethyl)amino)methyl)piperidin-1-yl)(1-(4-(3-(2,4-dihydroxy-5-isopropylphenyl)-5-hydroxy-4H-1,2,4-triazol-4-yl)benzyl)piperidin-4-yl) methanone, trifluoroacetic acid] | 100 to 1000 nM
Cc1sc2c(c1C)C(c1ccc(Cl)cc1)=N[C@@H](CCN(C)CCOc1ccc(-n3c(O)nnc3-c3cc(C(C)C)c(O)cc3O)cc1)c1nnc(C)n1-2 [Compound 65, (S)-4-(4-(4-(2-((2-(4-(4-chlorophenyl)-2,3,9-trimethyl-6H-thieno[3,2-f][1,2,4]triazolo[4,3-a][1,4]diazepin-6-yl)ethyl)(methyl)amino)ethoxy)phenyl)-5-hydroxy-4H-1,2,4-triazol-3-yl)-6-isopropylbenzene-1,3-diol] | 100 to 1000 nM
Cc1sc2c(c1C)C(c1ccc(Cl)cc1)=N[C@@H](CCNCC1CCN(C(=O)C3CCN(Cc4ccc(-n5c(O)nnc5-c5cc(C(C)C)c(O)cc5O)cc4)CC3)C1)c1nnc(C)n1-2 (stereo partly drawn) [Compound 66, (3-(((2-((6S)-4-(4-chlorophenyl)-2,3,9-trimethyl-6H-thieno[3,2-f][1,2,4]triazolo[4,3-a][1,4]diazepin-6-yl)ethyl)amino)methyl)pyrrolidin-1-yl)(1-(4-(3-(2,4-dihydroxy-5-isopropylphenyl)-5-hydroxy-4H-1,2,4-triazol-4-yl)benzyl)piperidin-4-yl) methanone, trifluoroacetic acid] | 100 to 1000 nM
CCc1cc(-c2nnc(O)n2-c2ccc(CN3CCC(C(=O)N4CCC(CNCC[C@@H]5N=C(c6ccc(Cl)cc6)c6c(sc(C)c6C)-n6c(C)nnc65)C4)CC3)cc2)c(O)cc1O (stereo partly drawn) [Compound 67, (3-(((2-((6S)-4-(4-chlorophenyl)-2,3,9-trimethyl-6H-thieno[3,2-f][1,2,4]triazolo[4,3-a][1,4]diazepin-6-yl)ethyl)amino)methyl)pyrrolidin-1-yl)(1-(4-(3-(5-ethyl-2,4-dihydroxyphenyl)-5-hydroxy-4H-1,2,4-triazol-4-yl)benzyl)piperidin-4-yl) methanone, trifluoroacetic acid] | 100 to 1000 nM
CCc1cc(-c2nnc(O)n2-c2ccc(CN3CCC(C(=O)N4CCC(CNCC[C@@H]5N=C(c6ccc(Cl)cc6)c6c(sc(C)c6C)-n6c(C)nnc65)CC4)CC3)cc2)c(O)cc1O [Compound 68, (4-(((2-((6S)-4-(4-chlorophenyl)-2,3,9-trimethyl-6H-thieno[3,2-f][1,2,4]triazolo[4,3-a][1,4]diazepin-6-yl)ethyl)amino)methyl)piperidin-1-yl)(1-(4-(3-(5-ethyl-2,4-dihydroxyphenyl)-5-hydroxy-4H-1,2,4-triazol-4-yl)benzyl)piperidin-4-yl) methanone, trifluoroacetic acid] | 100 to 1000 nM
Cc1sc2c(c1C)C(c1ccc(Cl)cc1)=N[C@@H](CCN(C)CCOCCOc1ccc(-n3c(O)nnc3-c3cc(C(C)C)c(O)cc3O)cc1)c1nnc(C)n1-2 [Compound 71, (S)-4-(4-(4-(2-(2-((2-(4-(4-chlorophenyl)-2,3,9-trimethyl-6H-thieno[3,2-f][1,2,4]triazolo[4,3-a][1,4]diazepin-6-yl)ethyl)(methyl)amino)ethoxy)ethoxy)phenyl)-5-hydroxy-4H-1,2,4-triazol-3-yl)-6-isopropylbenzene-1,3-diol, trifluoroacetic acid] | 100 to 1000 nM
Cc1sc2c(c1C)C(c1ccc(Cl)cc1)=N[C@@H](CC(=O)Nc1ccc(NC(=O)C3CCN(Cc4ccc(-n5c(O)nnc5-c5cc(C(C)C)c(O)cc5O)cc4)CC3)cc1)c1nnc(C)n1-2 [Compound 72, N-(4-(2-((6S)-4-(4-chlorophenyl)-2,3,9-trimethyl-6H-thieno[3,2-f][1,2,4]triazolo[4,3-a][1,4]diazepin-6-yl)acetamido)phenyl)-1-(4-(3-(2,4-dihydroxy-5-isopropylphenyl)-5-hydroxy-4H-1,2,4-triazol-4-yl)benzyl)piperidine-4-carboxamide, trifluoroacetic acid] | < 100 nM
CCc1cc(-c2nnc(O)n2-c2ccc(CN3CCC(C(=O)N4CCC(CNC(=O)C[C@@H]5N=C(c6ccc(Cl)cc6)c6c(sc(C)c6C)-n6c(C)nnc65)C4)CC3)cc2)c(O)cc1O (stereo partly drawn) [Compound 77, 2-((6S)-4-(4-chlorophenyl)-2,3,9-trimethyl-6H-thieno[3,2-f][1,2,4]triazolo[4,3-a][1,4]diazepin-6-yl)-N-((1-(1-(4-(3-(5-ethyl-2,4-dihydroxyphenyl)-5-hydroxy-4H-1,2,4-triazol-4-yl)benzyl)piperidine-4-carbonyl)pyrrolidin-3-yl)methyl)acetamide, trifluoroacetic acid] | 100 to 1000 nM
Cc1sc2c(c1C)C(c1ccc(Cl)cc1)=N[C@@H](CC(=O)N1CCN(c3ccc(-n4c(O)nnc4-c4cc(C(C)C)c(O)cc4O)cc3)CC1)c1nnc(C)n1-2 [Compound 79, (S)-2-(4-(4-chlorophenyl)-2,3,9-trimethyl-6H-thieno[3,2-f][1,2,4]triazolo[4,3-a][1,4]diazepin-6-yl)-1-(4-(4-(3-(2,4-dihydroxy-5-isopropylphenyl)-5-hydroxy-4H-1,2,4-triazol-4-yl)phenyl)piperazin-1-yl)ethan-1-one] | < 100 nM
Cc1sc2c(c1C)C(c1ccc(Cl)cc1)=N[C@@H](CC(=O)N1CCC(CCN3CCC(Cc4ccc(-n5c(O)nnc5-c5cc(C(C)C)c(O)cc5O)cc4)CC3)CC1)c1nnc(C)n1-2 [Compound 80, (S)-2-(4-(4-chlorophenyl)-2,3,9-trimethyl-6H-thieno[3,2-f][1,2,4]triazolo[4,3-a][1,4]diazepin-6-yl)-1-(4-(2-(4-(4-(3-(2,4-dihydroxy-5-isopropylphenyl)-5-hydroxy-4H-1,2,4-triazol-4-yl)benzyl)piperidin-1-yl)ethyl)piperidin-1-yl)ethan-1-one, trifluoroacetic acid] | < 100 nM
Cc1sc2c(c1C)C(c1ccc(Cl)cc1)=N[C@@H](CC(=O)N[C@H](C)c1cccc(CN3CCC(Cc4ccc(-n5c(O)nnc5-c5cc(C(C)C)c(O)cc5O)cc4)CC3)c1)c1nnc(C)n1-2 [Compound 81, 2-((S)-4-(4-chlorophenyl)-2,3,9-trimethyl-6H-thieno[3,2-f][1,2,4]triazolo[4,3-a][1,4]diazepin-6-yl)-N—((R)-1-(3-((4-(4-(3-(2,4-dihydroxy-5-isopropylphenyl)-5-hydroxy-4H-1,2,4-triazol-4-yl)benzyl)piperidin-1-yl)methyl)phenyl)ethyl)acetamide, trifluoroacetic acid] | < 100 nM
Cc1sc2c(c1C)C(c1ccc(Cl)cc1)=N[C@@H](CC(=O)N1CCC(Cc3ccc(CN(C)Cc4ccc(-n5c(O)nnc5-c5cc(C(C)C)c(O)cc5O)cc4)cc3)CC1)c1nnc(C)n1-2 [Compound 83, (S)-2-(4-(4-chlorophenyl)-2,3,9-trimethyl-6H-thieno[3,2-f][1,2,4]triazolo[4,3-a][1,4]diazepin-6-yl)-1-(4-(4-(((4-(3-(2,4-dihydroxy-5-isopropylphenyl)-5-hydroxy-4H-1,2,4-triazol-4-yl)benzyl)(methyl)amino)methyl)benzyl)piperidin-1-yl)ethan-1-one, trifluoroacetic acid] | < 100 nM
Cc1sc2c(c1C)C(c1ccc(Cl)cc1)=N[C@@H](CC(=O)N1CCC(CN3CCC(Cc4ccc(-n5c(C(=O)NCC(F)(F)F)nnc5-c5cc(C(C)C)c(O)cc5O)cc4)CC3)CC1)c1nnc(C)n1-2 [Compound 85, (S)-4-(4-((1-((1-(2-(4-(4-chlorophenyl)-2,3,9-trimethyl-6H-thieno[3,2-f][1,2,4]triazolo[4,3-a][1,4]diazepin-6-yl)acetyl)piperidin-4-yl)methyl)piperidin-4-yl)methyl)phenyl)-5-(2,4-dihydroxy-5-isopropylphenyl)-N-(2,2,2-trifluoroethyl)-4H-1,2,4-triazole-3-carboxamide, formic acid] | < 100 nM
CCc1cc(-c2nnc(C(=O)NCC(F)(F)F)n2-c2ccc(CC3CCN(CC4CCN(C(=O)C[C@@H]5N=C(c6ccc(Cl)cc6)c6c(sc(C)c6C)-n6c(C)nnc65)CC4)CC3)cc2)c(O)cc1O [Compound 86, (S)-4-(4-((1-((1-(2-(4-(4-chlorophenyl)-2,3,9-trimethyl-6H-thieno[3,2-f][1,2,4]triazolo[4,3-a][1,4]diazepin-6-yl)acetyl)piperidin-4-yl)methyl)piperidin-4-yl)methyl)phenyl)-5-(5-ethyl-2,4-dihydroxyphenyl)-N-(2,2,2-trifluoroethyl)-4H-1,2,4-triazole-3-carboxamide, trifluoroacetic acid] | < 100 nM
CCNC(=O)c1nnc(-c2cc(CC)c(O)cc2O)n1-c1ccc(CC2CCN(CC3CCN(C(=O)C[C@@H]4N=C(c5ccc(Cl)cc5)c5c(sc(C)c5C)-n5c(C)nnc54)CC3)CC2)cc1 [Compound 87, (S)-4-(4-((1-((1-(2-(4-(4-chlorophenyl)-2,3,9-trimethyl-6H-thieno[3,2-f][1,2,4]triazolo[4,3-a][1,4]diazepin-6-yl)acetyl)piperidin-4-yl)methyl)piperidin-4-yl)methyl)phenyl)-N-ethyl-5-(5-ethyl-2,4-dihydroxyphenyl)-1H-1,2,414-triazole-3-carboxamide, trifluoroacetic acid] | < 100 nM
CCc1cc(-c2nnc(O)n2-c2ccc(CC3CCN(CC4CCN(C(=O)C[C@@H]5N=C(c6ccc(Cl)cc6)c6c(sc(C)c6C)-n6c(C)nnc65)CC4)CC3)cc2)c(O)cc1O [Compound 88, (S)-2-(4-(4-chlorophenyl)-2,3,9-trimethyl-6H-thieno[3,2-f][1,2,4]triazolo[4,3-a][1,4]diazepin-6-yl)-1-(4-((4-(4-(3-(5-ethyl-2,4-dihydroxyphenyl)-5-hydroxy-4H-1,2,4-triazol-4-yl)benzyl)piperidin-1-yl)methyl)piperidin-1-yl)ethan-1-one, formic acid] | < 100 nM
